Test results reported in patent US20050249674A1, “Aerosol composition” (University College Cardiff Consultants Limited, priority 1998, published 2005).

Assay: visual assessment of suspension: ease of dispersion on hand held shaking, extent of aggregation, suspension quality
Format: physicochemical
Conditions: in HFA-134a or HFA-227
Experimental: Each suspension was assessed visually for its ease of dispersion on hand held shaking, its extent of aggregation and the quality of the suspension.
Ease of dispersion was scored on a scale of good (g), medium (m) and poor (p).
The extent of aggregation was scored on a scale of low, medium and high. Additionally the type of aggregation, if present, was recorded.
The quality of the suspension was scored on a scale of poor (p), poor-fair (p/f), fair (f), fair-good (f/g) and good (g).
The suspension properties measured by visual inspection were ease of dispersion, extent of aggregation and suspension quality and were scored as for Examples A to Q.
The resulting suspensions were assessed visually for ease of dispersion, suspension quality and extent of aggregation and scored as above, as set out under Examples A to R. The results are given in Table IV below.
The suspensions so formed were assessed visually for ease of dispersion and suspension quality and each assessment was scored on a scale of poor (p), poor-fair (p/f), fair (f), fair-good (f/g), good (g).
The extent of aggregation of each suspension was also assessed visually and in each example was rated as low.

CC(C)C[C@H](N)C(=O)O [Leucine, L-leucine]
tendency to cream or sediment in the propellant: tendency to cream

OC[C@H]1OC(O)[C@H](O)[C@@H](O)[C@@H]1O (stereo partly drawn) [Glucose, d-glucose anhydrous]
tendency to cream or sediment in the propellant: tendency to sediment
